Like-named read-outs stand apart in the source and are kept apart here.
Assays:
T. b. brucei = test: Growth of T. b. brucei trypomastigotes in axenic culture; assay type: cell-based; conditions: Trypanosoma brucei
Description: (§1) We previously reported the synthesis of a series of macrocycles, including 1 (Figure 2A), designed to investigate how structural features influence molecular chameleonicity.[15],[21] Originating from the structural similarities between 1 and hymenocardine, we investigated 1 in screens for P. falciparum and four kinetoplastid parasites: T. b. brucei, T. b. rhodesiense, T. cruzi, and L. infantum. In the screens, we also included compounds 2 and 3 (Figure 2A), which were obtained from an intermediate late in the synthetic route to 1. Since very few validated protein targets relevant to clearance of parasites are known, phenotypic assays were used to investigate the antiparasitic activity for all five parasites. For malaria, the P. falciparum blood stage 3D7 strain was used to test the three compounds. For the two Trypanosoma brucei species, the reduction in trypomastigote growth in culture medium was determined after the addition of 1–3. For T. cruzi, the intracellular parasite growth in infected human fibroblasts (MRC-5 cell line) was assessed in the presence and absence of the three inhibitors. Similarly, the growth of L. infantum was assessed in infected primary mouse macrophages (PMMs) in the presence and absence of the inhibitors. […] The assays for T. cruzi and L. infantum are complex, i.e., they determine the degree of inhibition of parasitic replication in a mammalian cell line; this complexity may lead to a high variability for some compounds.
(§2) The growth of the P. falciparum blood stage 3D7 strain,[53] the two T. brucei species in axenic cultures,[54]T. cruzi in infected human fibroblasts (MRC-5 cell line),[55] and of L. infantum in infected primary mouse macrophages (PMMs)[56] was determined as previously reported in the presence and absence of inhibitors 1–12.

T. b. rhodesiense = test: Growth of T. b. rhodesiense trypomastigotes in axenic culture; assay type: cell-based, Trypanosoma brucei rhodesiense; conditions: for EC50: Trypanosoma brucei, RHODESIENSE / STIB900, CSV supplement, decimal comma, read-out: EC50 T.b. rhodesiense STIB 900; for activity as inhibitor of T. b. rhodesiense (in words): text on Table S1
Description: as §1, §2

[1] = tested on: P. falciparum blood stage 3D7 strain; test: Growth of P. falciparum blood stage 3D7 strain (phenotypic); assay type: cell-based, Plasmodium falciparum; conditions: Figure 2A; for EC50: Plasmodium falciparum, 3D7, mean (SD) from 2 to 14 measurements
Description: as §1, §2

T. cruzi = test: Intracellular growth of T. cruzi in infected human fibroblasts (MRC-5 cell line); assay type: cell-based; conditions: Trypanosoma cruzi
Description: as §1, §2

[2] = tested on: primary mouse macrophages (PMMs); test: Host cell cytotoxicity in primary mouse macrophages (PMM); assay type: cell-based; conditions: CSV supplement; decimal comma
[3] = Kinetic solubility in phosphate buffered saline at pH 7.4; assay type: physicochemical
Protocol: (§3) The kinetic solubility in phosphate buffered saline at pH 7.4, chromatographic Log D at pH 7.4, cell permeability across a MDCK-MDR1 cell monolayer at pH 7.4, and the clearance in mouse liver microsomes of 1–12 was determined at TCG Lifesciences.

[4] = Chromatographic Log D at pH 7.4; assay type: physicochemical; conditions: 1-octanol/PBS pH 7.4, determined by chromatography, mean of two measurements
Protocol: as §3

[5] = Clearance in human microsomes; assay type: in vitro ADME; conditions: CSV supplement; for microsomal CLint: human, microsomes, read-out: CLint in vitro Human Microsomes
Description: Supplement jm4c01370_si_002.csv, table | column: CLint in vitro Human Microsomes µL/min/mg; t(1/2) min

L. infantum = test: Growth of L. infantum in infected primary mouse macrophages (PMMs), phenotypic assay; assay type: cell-based, Leishmania infantum; conditions: Leishmania infantum, Macrophage
Description: as §1
(§4) The potency of macrocycles 1–12 to inhibit the growth of L. infantum was determined in a phenotypic assay in which the parasite was grown in primary peritoneal mouse macrophages (PMMs). To understand whether the SAR for inhibition of parasitic growth is impacted by low cell permeability, the permeability of compounds 1–12 was determined separately. Madin-Darby canine kidney (MDCK) cells transfected with the human MDR1 (multidrug resistance 1) gene (MDCK-MDR1 cells) were used to determine permeabilities in the apical to basolateral direction (Papp AB) as well as efflux ratios (ERs). […] Lipophilicity (Log D at pH 7.4), aqueous kinetic solubility and mouse liver microsomal metabolism were also determined for 1–12, and are discussed separately (cf. physiochemical properties and ADMET, below).
as §2

[6] = Clearance in mouse liver microsomes; assay type: in vitro ADME; conditions: for microsomal CLint: mouse, liver microsomes
Protocol: as §3

MRC-5 cells = test: Host cell cytotoxicity in MRC-5 cells; assay type: cell-based, human; conditions: CSV supplement; decimal comma
MDR1 = test: in vitro; assay type: in vitro ADME, canine; conditions: dog; for Papp B→A: MDCK-MDR1, pH 7.4; for Papp A→B: MDCK-MDR1, pH 7.4, Papp AB
Protocol: as §4, §3

[7] = Metabolite identification after incubation with rat liver microsomes; assay type: in vitro ADME; conditions: Figure S3: rat liver microsomes, samples at 5, 10, 20, 30 and 60 minutes
Protocol: page 4: Figure S2. Endo and exo conformations for compound 5, obtained using the Monte Carlo-QM protocol for conformational sampling. Minimum energy conformations (MECs) and all conformations within 5 kcal/mol of the MECs are shown. Figure S3. Metabolically labile sites (indicated by red circles) observed for compound 3 after incubation with rat liver microsomes. Samples were collected at 5, 10, 20, 30 and 60 minutes. […]

Leishmania donovani = test: Activity against Leishmania donovani; assay type: cell-based
MDCK-MDR1 cells = test: in vitro; assay type: in vitro ADME, canine; conditions: dog, MDCK-MDR1, pH 7.4
Protocol: as §4, §3

[8] = CSV supplement, decimal comma, read-out: EC50 T.b. brucei Squib 427
[9] = MRC5, Figure 2A, mean (SD) from 2 to 14 measurements, read-out: EC50 T. cruzi
[10] = MRC5, Table S1, mean (SD), 2 to 14 measurements, unit not given in Table S1, read-out: In vitro potency, T. cruzi
[11] = TULAHUEN, MRC5, read-out: EC50 T. cruzi Tulahuen C4 (LacZ)
[12] = phosphate buffered saline, pH 7.4, CSV supplement, read-out: Kinetic solubility
[13] = phosphate buffered saline, pH 7.4, phosphate buffered saline pH 7.4, assay range 2.5–200 μM, read-out: solubility (kinetic)
[14] = CSV supplement, decimal comma, read-out: EC50 L. infantum MHOM/MA(BE)/67
[15] = Table 1, mean (standard deviation, number of measurements), read-out: EC50 (μM), inhibition of the growth of L. infantum
[16] = CSV supplement, read-out: CLint in vitro Mouse Microsomes
[17] = incubation with mouse liver microsomes, read-out: CLint
[18] = MDCK-MDR1, pH 7.4, ER, efflux ratio (BA/AB)
[19] = MDCK-MDR1, pH 7.4, MDCK MDR1 - pH 7.4 Efflux Ratio
[20] = Table S1, mean (SD), 2 to 14 measurements, unit not given in Table S1, read-out: In vitro potency, T. b. brucei

SMILES | EC50 (T. b. brucei; [8]) [µM] | EC50 (T. b. rhodesiense) [µM] | potency as inhibitor of P. falciparum (in words) [1] | EC50 [1] [µM] | EC50 (T. cruzi; [11]) [µM] | PMM Primary Mouse Macrophages (inf-LMPH) (cytotoxicity) [2] | solubility kinetic [3, 12] [µg/mL] | solubility kinetic [3, 13] [µM] | chromatographic logD [4] | t(1/2), Human Microsomes [5] | microsomal CLint [5] [µL/min/mg] | EC50 (L. infantum; [15]) [µM] | t(1/2), Mouse Microsomes ([6]; CSV supplement) | microsomal CLint [6, 16] [µL/min/mg] | microsomal CLint [6, 17] [µL/min/mg] | MRC-5 cells Human Lung Fibroblast Cells (cytotoxicity) (MRC-5 cells) | Papp B→A (MDR1) [×10⁻⁶ cm/s] | efflux ratio (MDR1; [18]) | efflux ratio (MDR1; [19]) | Papp A→B (MDR1) [×10⁻⁶ cm/s] | other results
CC(C)(C)OC(=O)N[C@H]1Cc2ccc(cc2)Oc2ccc(cc2)C(=O)CNC(=O)[C@H](Cc2ccccc2)NC1=O [Compound 1] | 6.1 | 6 | low or no potency | 21 | 14.6 | 48,0 µM | 24 | 44 | 4 | 3,5 min | 497 | 33 | <3 min | > 578 | > 580 | >64 µM | 21.4 | 4.3 | 4.3 | 5 | EC50 (T. cruzi; [9]): 10 to 30 µM; EC50 (T. cruzi; [10]): 15 µM; EC50 (L. infantum; [14]): 32.8 µM
CC(=O)Nc1cc2ccc1Oc1ccc(cc1)C[C@H](NC(=O)OC(C)(C)C)C(=O)N[C@@H](Cc1ccccc1)C(=O)NCC2=O [Compound 2] | 37 | 29 | low or no potency | > 25 | 41 | >64 µM | 101 | > 100 | 3.2 | 6,1 min | 285 | 31 | 6,0 min | 257 | 260 | 50,5 µM | 13.3 | 19 | 19.3 | 0.7 | solubility kinetic ([3]; phosphate buffered saline pH 7.4, assay range 2.5–200 μM, read-out: solubility (kinetic)): 169 µM
CC(C)(C)OC(=O)N[C@H]1Cc2ccc(cc2)Oc2ccc(cc2NC(=O)c2ccccn2)C(=O)CNC(=O)[C@H](Cc2ccccc2)NC1=O [Compound 3, tert-Butyl ((8S,11S)-8-Benzyl-4,7,10-trioxo-3^2-(picolinamido)-2-oxa-6,9-diaza-1,3(1,4)-dibenzenacyclododecaphane-11-yl)carbamate] | 15.1 | 9.1 | moderately potent | 3 | 20 | >64 µM | 1 | < 2.5 | 4.9 | <3 min | > 578 | 1.8 | <3 min | > 578 | > 580 | 57,6 µM | 22.2 | 6.4 | 6.4 | 3.5 | EC50 (T. b. brucei; [20]): 15 µM; EC50 (T. cruzi; [9]): 10 to 30 µM; metabolite identification, sites of metabolism [7]: oxidative metabolism occurring at the P2 and P3 positions, and at the α-carbon atom of the tyrosine moiety in the macrocyclic ring; EC50 (Leishmania donovani): 1.04 ± 0.25 µM; EC50 (L. infantum; Figure 2, mean (SD), miltefosine from 19 measurements, read-out: EC50 L. infantum): < 2 µM
CC(C)(C)OC(=O)N[C@H]1Cc2ccc(cc2)Oc2ccc(cc2NC(=O)c2ccccn2)CCNC(=O)[C@H](Cc2ccccc2)NC1=O [Compound 6, tert-Butyl ((8S,11S)-8-Benzyl-7,10-dioxo-3^2-(picolinamido)-2-oxa-6,9-diaza-1,3(1,4)-dibenzenacyclododecaphane-11-yl)carbamate] | 11.8 | 6.3 |  |  | 18.8 | 16,0 µM | 3.8 | 5.9 | 5.1 |  |  | 12 | <3 min | > 578 | > 580 | 45,8 µM | 79.9 | 8.4 | 8.4 | > 5 | EC50 (T. b. brucei; [20]): 12 µM; EC50 (T. cruzi; [10]): 19 µM; EC50 (L. infantum; [14]): 12.3 µM; Papp AB (MDCK-MDR1 cells): 9.5 ×10^–6 cm/s
CC(C)(C)OC(=O)N[C@H]1Cc2ccc(cc2)Oc2ccc(cc2NC(=O)c2ccccn2)C(=O)CNC(=O)[C@H](c2ccccc2)NC1=O [Compound 9, tert-Butyl ((8S,11S)-4,7,10-Trioxo-8-phenyl-3^2-(picolinamido)-2-oxa-6,9-diaza-1,3(1,4)-dibenzenacyclododecaphane-11-yl)carbamate] | 7.7 | 1.9 |  |  | 18.9 | >64 µM | 10.3 | 16 | 4.4 | 8,8 min | 197 | 6.6 | 8,4 min | 206 | 210 | >64 µM | 4.2 | 9.9 | 9.9 | 0.4 | activity as inhibitor of T. b. rhodesiense (in words) (T. b. rhodesiense): moderately active; EC50 (T. cruzi; [10]): 19 µM
CC(C)C[C@@H]1NC(=O)[C@@H](NC(=O)OC(C)(C)C)Cc2ccc(cc2)Oc2ccc(cc2NC(=O)c2ccccn2)C(=O)CNC1=O [Compound 10, tert-Butyl ((8S,11S)-8-Isobutyl-4,7,10-trioxo-3^2-(picolinamido)-2-oxa-6,9-diaza-1,3(1,4)-dibenzenacyclododecaphane-11-yl)carbamate] | 8.5 | 2.1 |  |  | 50 | >64 µM | 4.8 | 7.6 | 4.8 | 4,8 min | 361 | 2.1 | <3 min | > 578 | > 580 | >64 µM | 6.8 | 3.1 | 3.1 | 2.2 | activity as inhibitor of T. b. rhodesiense (in words) (T. b. rhodesiense): moderately active
